From patent publication US5561042A, “Diamine platinum naphthalimide complexes as antitumor agents” (Cancer Therapy and Research Center, priority 1995, dated 1996)

Experiments:
[1] = test system: poly (dG.dC) - poly (dG.dC); assay: Ethidium bromide displacement, poly(dG.dC)-poly(dG.dC); assay type: binding
Method: (§1) A 10× Binding solution was prepared by combining 0.93 ml of an aqueous NaCl solution (5M), 2.0 ml of an aqueous Tris HCl (500 mM) solution, 0.1 ml of an EDTA solution (500 mM) and 46.97 ml of water. The resultant solution was 93 mM in NaCl, 20 mM in Tris HCl, and 1 mM in EDTA. Stock DNA solution were prepared as follows: Poly (dG·dC)-(dG·dC) (ε254=8.4/mM; 27-7910-02), poly(dA·dT)-(dA·dT) (ε262=6.6/mM; 27-7870-02), and lambda DNA (ε260-7.0/mM; 27-4111-01) were purchased from Pharmacia. Solutions were prepared by resuspending either poly (dG·dC)-(dG·dC) or poly(dA·dT)-(dA·dT)in 1 ml of 10× DNA Binding Solution. Lambda DNA is already in solution as purchased.
(§2) Poly (dG·dC)-(dG·dC), poly(dA·dt)-(dA·dt) and lambda DNA concentrations were determined as follows: 980 μl of 10× DNA Binding Solution was pipetted into a 1 ml cuvette. A blank was run on the UV spectrophotometer. 20 μl of the DNA stock of unknown concentration was then added into the cuvette. The sample was then scanned between 210 nm to 500 nm and the absorbance recorded at 254 nm for poly(dG·dC)-(dG·dC), at 262 nm for poly(dA·dT)-(dA·dT) and at 260 nm for lambda DNA. The solution was transferred to a clean tube. This procedure was followed for three different solutions with the absorbance taken as the average of the three. The concentration of poly(dG·dC)-(dG·dC) stock was calculated to be A254 /8.4×1000 (in μM). The concentration of poly(dA·dT)-(dA·dT) stock was calculated to be A262 /6.6×1000 (in μM). The concentration of lambda DNA stock was calculated to be A260 /7.0×1000 (in μM).
(§3) The binding of the bis-naphthalimides to DNA and to synthetic polynucleotide duplexes was determined by an ethidium bromide displacement assay that measures the reduction of fluorescence when ethidium bromide is displaced from DNA (Baguley, 1981). The fluorescence intensity of a 3 ml solution containing 9.3 mM NaCl, 2 mM Tris-HCl (pH 7.0), 100 μM EDTA, 1 μM DNA (in nucleotides) and 1.26 μM ethidium bromide in a quartz cuvette was measured at the excitation (546 nm) and emission (600 nm) wavelengths on a Shimadzu RF5000U spectrofluorometer. Graded concentrations of agent were then added and the fluorescence intensity was measured. The concentration of compound required to reduce the fluorescence intensity by 50% of that of control (FI50) was determined. Therefore, the lower the FI50 the stronger the binding affinity a particular compound has for DNA.
(§4) The ability of bis-naphthalimides of the present invention and the known anti-cancer agents compound 22 and DMP840, (R,R)-2,2'[1,2-ethanediylbis[imino(1-methyl-2,1-ethanediyl)]]-bis[5-nitro- 1H benz[de]isoquinoline-1,3-(2H)dione]dimethanesulfonate, to bind to DNA and to synthetic oligonucleotide duplexes was measured using an ethidium bromide displacement assay. Ethidium bromide, a known DNA intercalator, has no fluorescence in the absence of DNA; however, fluorescence intensity increases when ethidium bromide binds to DNA. The ethidium bromide displacement assay measures the decrease in fluorescence intensity caused by DNA-bound ethidium bromide with DNA interacting agents.

[2] = molecular target: poly (dA.dT) - poly (dA.dT); assay: Ethidium bromide displacement, poly(dA.dT)-poly(dA.dT); assay type: binding; settings: 1 μM DNA, 1.26 μM ethidium bromide, pH 7.0, read-out: FI50, poly (dA.dT) - poly (dA.dT)
Method: as §1, §2, §3, §4

[3] = test system: P388 murine leukemic cell line; assay: In vitro growth inhibition (MTT), P388 leukemia; assay type: cell-based; settings: 3 days
Text: P388 murine leukemic cell line was obtained from the DCT Tumor Repository (National Cancer Institute, Frederick Cancer Research and Development, Frederick Md. 21702). HT29 Human Colon Carcinoma cell line was obtained from the American Type Culture Collection (12301 Parklawn Drive, Rockville, Md. 20852). B16 Melanoma cell line was obtained from DuPont Merck Pharmaceutical Company (Glenolden, Pa. 19036). MCF-7 Human Breast Carcinoma cell line was a gift from Dr. K. Osborne (Department of Medicine, The University of Texas Health Science Center at San Antonio, San Antonio, Tex. 78284). All cell lines were incubated at 37° C. in a humidified atmosphere of 5% CO2 -95% air. Murine B16 melanoma cell line was grown in RPMI 1640 medium supplemented with 10% heat-inactivated fetal bovine serum, 2 mM L-glutamine, 50 units/ml penicillin, 50 μg/ml streptomycin, 25 μg/ml gentamycin, 0.75% sodium bicarbonate, 10 mM HEPES buffer (pH 7.4), and 0.06 mg/ml AntiPPLO. Murine P388 leukemic and the human HT-29 colon adenocarcinoma cell lines were maintained in RPMI 1640 medium supplemented with 10% heat-inactivated fetal bovine serum. MCF-7M human breast adenocarcinoma was maintained in IMEM medium supplemented with 5% non heat-inactivated fetal bovine serum and 1 nM insulin.
Exponentially growing cells (1-2×10^3 cells, unless specified otherwise) in 0.1 ml medium were seeded on day 0 in a 96-well microtiter plate. On day 1, 0.1 ml aliquots of medium containing graded concentrations of test compounds were added in duplicate to the cell plates. After incubation at 37° C. in a humidified incubator for 3 days (P388, B16) or 6 days (HT-29, MCF-7M), the plates were centrifuged briefly and 100 μl of the growth medium was removed. Cell cultures were incubated with 50 μl of 3-(4,5-dimethylthiazol-2-yl)-2,5-diphenyl-tetrazolium bromide [MTT, 1 mg/ml in Dulbecco's phosphate buffered saline (PBS)] for 4 hr at 37° C. The resulting purple formazan precipitate was solubilized with 200 μl of 0.04N HCl in isopropyl alcohol. Absorbance was monitored in a BioRad Model 3550 Microplate Reader at a test wavelength of 570 nm and a reference wavelength of 630 nm. The absorbance was transferred to a PC 486 computer. The IC50 values were determined by a computer program (EZ-ED50) that fit all of the data to the following four-parameterlogistic equation:
Y=((Am -Ao)/(1+(X/IC50)^n))+Ao
where Am is the absorbance of control cells, Ao is the absorbance of cells in the presence of highest agent concentration, Y is the observed absorbance, X is the agent concentration, IC50 is the concentration of agent that inhibits the cell growth by 50% of control cells (based on the absorbance) and n is the slope of the curve.

8-(3'-nitro-1',8'-naphthalimide)-3,6-diazaoctylamine dichloroplatinum(II) [Compound 21]
Ratio (AT/GC) ([1]; FI50 poly(dA.dT)-poly(dA.dT) / FI50 poly(dG.dC)-poly(dG.dC)): 0.72
IC50 ([1]; ethidium bromide displacement, 1 μM DNA, 1.26 μM ethidium bromide, pH 7.0, read-out: FI50, poly (dG.dC) - poly (dG.dC)): 239 nM
IC50 [2]: 173 nM
IC50 [3]: 302 nM
